Measurements as given in ChEMBL document CHEMBL1201862, “PubChem BioAssay data set” (2004).
Activity calls are given as the source filed them.

Tests used:
[1] = target: T1, Estrogen receptor (Homo sapiens, UniProt P03372);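 also: potency for inhibiting coactivator peptide recruitment to the receptor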
T1 sequence (P03372 whole entry): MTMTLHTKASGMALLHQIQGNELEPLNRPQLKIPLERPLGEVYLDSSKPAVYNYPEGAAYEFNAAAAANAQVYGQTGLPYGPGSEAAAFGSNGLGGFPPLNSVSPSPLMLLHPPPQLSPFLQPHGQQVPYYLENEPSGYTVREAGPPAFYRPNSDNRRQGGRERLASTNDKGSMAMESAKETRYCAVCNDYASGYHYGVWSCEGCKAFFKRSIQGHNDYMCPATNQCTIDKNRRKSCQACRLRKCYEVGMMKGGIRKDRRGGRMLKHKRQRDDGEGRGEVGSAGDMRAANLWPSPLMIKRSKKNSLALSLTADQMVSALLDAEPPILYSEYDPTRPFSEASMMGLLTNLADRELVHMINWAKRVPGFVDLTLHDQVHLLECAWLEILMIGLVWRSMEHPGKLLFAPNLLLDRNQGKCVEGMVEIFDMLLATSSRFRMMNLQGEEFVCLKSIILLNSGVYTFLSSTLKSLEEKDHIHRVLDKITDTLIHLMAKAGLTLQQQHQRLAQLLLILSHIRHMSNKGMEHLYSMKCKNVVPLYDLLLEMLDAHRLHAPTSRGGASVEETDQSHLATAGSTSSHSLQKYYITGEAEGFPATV

[2] = target: Cytochrome P450 3A4 (Homo sapiens, UniProt P08684); conditions: Potency;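 also: confirmatory qHTS run detecting inhibitors and substrates of CYP3A4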
[3] = target: T2, Short transient receptor potential channel 4 (Mus musculus, UniProt Q9QUQ5); experiment: mouse TRPC4 channel activators, dose response, cell-based, HEK293 TRPC4/mu-opioid, Fluo-4 calcium (AID 434937); type: functional
T2 sequence (Q9QUQ5 whole entry): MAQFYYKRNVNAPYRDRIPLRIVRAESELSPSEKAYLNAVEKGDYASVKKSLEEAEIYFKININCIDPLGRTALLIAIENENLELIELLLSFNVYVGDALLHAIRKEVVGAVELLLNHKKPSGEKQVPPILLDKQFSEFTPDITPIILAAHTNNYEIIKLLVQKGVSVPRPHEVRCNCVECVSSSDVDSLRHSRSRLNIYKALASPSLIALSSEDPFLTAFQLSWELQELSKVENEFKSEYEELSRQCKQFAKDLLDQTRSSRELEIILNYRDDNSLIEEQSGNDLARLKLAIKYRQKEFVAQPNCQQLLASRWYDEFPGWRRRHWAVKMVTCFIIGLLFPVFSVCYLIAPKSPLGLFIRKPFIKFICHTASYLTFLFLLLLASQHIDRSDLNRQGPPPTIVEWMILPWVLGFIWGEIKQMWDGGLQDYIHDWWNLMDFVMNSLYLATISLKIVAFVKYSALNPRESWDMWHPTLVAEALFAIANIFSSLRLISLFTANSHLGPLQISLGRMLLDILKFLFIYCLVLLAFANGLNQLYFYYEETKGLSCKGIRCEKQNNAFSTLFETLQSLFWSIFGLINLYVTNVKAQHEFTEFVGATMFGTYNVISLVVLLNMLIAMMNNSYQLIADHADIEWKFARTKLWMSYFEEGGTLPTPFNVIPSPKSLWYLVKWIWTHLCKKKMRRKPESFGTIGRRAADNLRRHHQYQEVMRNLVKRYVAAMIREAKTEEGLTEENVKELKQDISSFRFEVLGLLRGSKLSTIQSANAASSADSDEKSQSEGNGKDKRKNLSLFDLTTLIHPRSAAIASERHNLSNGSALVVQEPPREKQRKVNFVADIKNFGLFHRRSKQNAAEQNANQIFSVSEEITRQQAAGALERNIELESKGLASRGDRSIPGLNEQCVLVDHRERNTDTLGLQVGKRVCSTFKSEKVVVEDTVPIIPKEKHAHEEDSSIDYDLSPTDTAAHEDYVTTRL

[4] = target: Large T antigen (Simian virus 40, UniProt P03070); type: functional, Betapolyomavirus macacae;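 also: Confirmatory-stage PubChem screen for compounds that inhibit SV40 T antigen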
[5] = HepG2 cell cytotoxicity, dose response, cytotoxicity control, cherry-picked samples (AID 1159577); type: functional, cell-based
[6] = P. falciparum Dd2 growth inhibitors, dose response, SYBR Green, cherry-picked samples (AID 1159567); type: functional, cell-based
[7] = target: T2, Short transient receptor potential channel 4; experiment: mouse TRPC4 channel inhibitors, dose response, cell-based, HEK293 TRPC4/mu-opioid, Fluo-4 calcium (AID 434942); type: functional;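 also: potency of inhibitors blocking the TRPC4 calcium response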
[8] = target: T3, Apoptotic protease-activating factor 1 (Homo sapiens, UniProt O14727); type: functional
T3 sequence (O14727 whole entry): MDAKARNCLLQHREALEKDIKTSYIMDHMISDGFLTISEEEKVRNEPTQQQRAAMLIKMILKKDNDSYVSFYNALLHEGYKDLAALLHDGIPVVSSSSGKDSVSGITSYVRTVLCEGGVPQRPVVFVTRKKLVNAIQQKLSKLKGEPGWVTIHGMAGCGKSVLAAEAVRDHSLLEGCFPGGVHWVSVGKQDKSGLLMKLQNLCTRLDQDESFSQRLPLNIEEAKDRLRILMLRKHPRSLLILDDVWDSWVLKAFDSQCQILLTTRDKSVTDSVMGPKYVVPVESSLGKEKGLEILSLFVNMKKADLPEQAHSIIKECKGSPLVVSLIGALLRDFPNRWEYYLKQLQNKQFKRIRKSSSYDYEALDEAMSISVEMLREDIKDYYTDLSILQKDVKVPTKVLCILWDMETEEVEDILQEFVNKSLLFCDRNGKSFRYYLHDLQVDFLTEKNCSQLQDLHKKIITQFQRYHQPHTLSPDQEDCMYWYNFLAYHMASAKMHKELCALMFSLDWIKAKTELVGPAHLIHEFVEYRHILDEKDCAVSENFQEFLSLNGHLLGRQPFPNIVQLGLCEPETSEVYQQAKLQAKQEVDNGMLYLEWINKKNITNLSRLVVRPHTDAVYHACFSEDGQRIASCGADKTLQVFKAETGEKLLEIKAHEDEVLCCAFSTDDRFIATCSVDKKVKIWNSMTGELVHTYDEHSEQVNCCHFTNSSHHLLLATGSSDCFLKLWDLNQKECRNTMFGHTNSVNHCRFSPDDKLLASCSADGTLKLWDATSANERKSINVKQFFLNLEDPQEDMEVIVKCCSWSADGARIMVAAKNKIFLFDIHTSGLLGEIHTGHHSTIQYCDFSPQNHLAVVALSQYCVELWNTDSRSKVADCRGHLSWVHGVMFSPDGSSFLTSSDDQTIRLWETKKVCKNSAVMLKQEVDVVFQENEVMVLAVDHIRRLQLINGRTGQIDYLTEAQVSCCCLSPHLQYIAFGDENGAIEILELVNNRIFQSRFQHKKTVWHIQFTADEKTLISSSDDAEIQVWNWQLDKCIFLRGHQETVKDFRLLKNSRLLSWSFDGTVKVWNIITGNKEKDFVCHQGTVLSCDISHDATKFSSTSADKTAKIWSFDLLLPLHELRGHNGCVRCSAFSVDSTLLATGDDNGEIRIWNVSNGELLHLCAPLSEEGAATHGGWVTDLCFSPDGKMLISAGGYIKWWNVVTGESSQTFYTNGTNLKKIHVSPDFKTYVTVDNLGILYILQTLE

[9] = target: Paired box protein Pax-8 (Homo sapiens, UniProt Q06710); experiment: inhibitors of PAX8-driven TPO luciferase reporter, dose response, RMG-I cells, cherry-pick (AID 687027); type: functional, cell-based;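 also: luciferase reporter driven by Pax8 target thyroperoxidase promoter measured by SteadyGlo luminescence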
[10] = inhibitors of HIV Env-driven cell fusion, dose response, cherry-pick (AID 652057); type: functional, cell-based
[11] = target: T4, RNA-binding protein pos-1 (Caenorhabditis elegans, UniProt G5EF15); experiment: inhibitors of POS-1/mex-3 RNA binding, dose response, biochemical, fluorescence polarization (AID 1964);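 also: purified POS-1 fused to maltose binding protein made in E. coli; potency of compounds blocking POS-1 binding to fluorescent RNA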
T4 sequence (G5EF15 whole entry): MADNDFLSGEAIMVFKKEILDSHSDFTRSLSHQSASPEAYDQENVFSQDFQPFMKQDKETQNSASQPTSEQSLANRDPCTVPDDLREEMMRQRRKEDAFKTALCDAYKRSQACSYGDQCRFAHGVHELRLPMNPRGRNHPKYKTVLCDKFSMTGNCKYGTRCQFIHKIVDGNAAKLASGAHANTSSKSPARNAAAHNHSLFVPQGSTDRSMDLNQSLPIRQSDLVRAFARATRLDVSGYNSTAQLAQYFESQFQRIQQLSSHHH

[12] = cells; type: functional, cell-based
[13] = target: T5, Zinc finger protein mex-5 (Caenorhabditis elegans, UniProt Q9XUB2); experiment: MEX-5/TCR-2 RNA interaction inhibitors, dose response, biochemical, C. elegans, fluorescence polarization (AID 1960)
T5 sequence (Q9XUB2 whole entry): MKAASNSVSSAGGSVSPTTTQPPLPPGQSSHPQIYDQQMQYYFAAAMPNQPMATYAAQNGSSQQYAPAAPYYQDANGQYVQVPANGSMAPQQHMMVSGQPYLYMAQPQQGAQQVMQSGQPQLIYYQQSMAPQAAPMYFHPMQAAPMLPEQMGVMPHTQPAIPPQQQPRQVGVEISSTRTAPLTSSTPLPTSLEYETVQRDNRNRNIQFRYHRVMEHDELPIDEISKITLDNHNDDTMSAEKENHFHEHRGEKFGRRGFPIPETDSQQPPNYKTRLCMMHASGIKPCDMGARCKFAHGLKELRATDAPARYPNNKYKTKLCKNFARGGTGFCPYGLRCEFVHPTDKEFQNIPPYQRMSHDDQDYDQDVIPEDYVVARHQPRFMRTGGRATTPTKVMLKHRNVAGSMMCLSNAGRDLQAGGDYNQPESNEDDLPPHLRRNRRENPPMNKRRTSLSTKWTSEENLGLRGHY

[14] = cells; type: functional, cell-based; remark: listed apart in the source

Cytochrome P450 3A4, sequence (P08684 whole entry): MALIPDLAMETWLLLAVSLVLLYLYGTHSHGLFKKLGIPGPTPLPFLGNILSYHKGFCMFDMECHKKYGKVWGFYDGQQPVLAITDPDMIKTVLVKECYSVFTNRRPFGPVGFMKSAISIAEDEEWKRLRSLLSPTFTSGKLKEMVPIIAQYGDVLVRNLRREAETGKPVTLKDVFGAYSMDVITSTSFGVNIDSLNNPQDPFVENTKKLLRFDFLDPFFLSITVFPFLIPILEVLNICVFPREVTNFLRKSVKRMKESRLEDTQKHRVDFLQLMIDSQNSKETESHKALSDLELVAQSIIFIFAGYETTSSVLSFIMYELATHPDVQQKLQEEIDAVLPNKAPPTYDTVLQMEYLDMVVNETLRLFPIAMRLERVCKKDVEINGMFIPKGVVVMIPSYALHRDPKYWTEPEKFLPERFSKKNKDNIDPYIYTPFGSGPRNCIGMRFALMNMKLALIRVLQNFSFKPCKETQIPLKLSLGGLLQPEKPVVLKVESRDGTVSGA
Large T antigen, sequence (P03070 whole entry): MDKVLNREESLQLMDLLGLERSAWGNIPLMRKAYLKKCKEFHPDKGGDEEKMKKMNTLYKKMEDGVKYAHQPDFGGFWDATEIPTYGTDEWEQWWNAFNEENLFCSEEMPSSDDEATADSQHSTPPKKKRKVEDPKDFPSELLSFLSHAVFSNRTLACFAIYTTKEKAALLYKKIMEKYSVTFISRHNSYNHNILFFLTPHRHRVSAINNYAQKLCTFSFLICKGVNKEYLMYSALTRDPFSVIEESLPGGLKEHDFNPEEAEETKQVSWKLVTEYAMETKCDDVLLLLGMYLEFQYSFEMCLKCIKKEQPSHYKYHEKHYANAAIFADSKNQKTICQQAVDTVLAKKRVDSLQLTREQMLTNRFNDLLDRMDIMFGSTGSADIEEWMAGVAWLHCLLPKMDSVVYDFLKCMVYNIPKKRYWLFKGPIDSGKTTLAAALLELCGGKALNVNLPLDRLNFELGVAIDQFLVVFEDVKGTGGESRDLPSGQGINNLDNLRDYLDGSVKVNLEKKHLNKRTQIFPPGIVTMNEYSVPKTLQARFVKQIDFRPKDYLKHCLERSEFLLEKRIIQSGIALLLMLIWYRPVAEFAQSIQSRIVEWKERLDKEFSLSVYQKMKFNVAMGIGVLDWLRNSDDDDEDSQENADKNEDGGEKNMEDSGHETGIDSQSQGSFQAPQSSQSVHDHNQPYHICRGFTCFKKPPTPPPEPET
Paired box protein Pax-8, sequence (Q06710 whole entry, the tested form may be a part): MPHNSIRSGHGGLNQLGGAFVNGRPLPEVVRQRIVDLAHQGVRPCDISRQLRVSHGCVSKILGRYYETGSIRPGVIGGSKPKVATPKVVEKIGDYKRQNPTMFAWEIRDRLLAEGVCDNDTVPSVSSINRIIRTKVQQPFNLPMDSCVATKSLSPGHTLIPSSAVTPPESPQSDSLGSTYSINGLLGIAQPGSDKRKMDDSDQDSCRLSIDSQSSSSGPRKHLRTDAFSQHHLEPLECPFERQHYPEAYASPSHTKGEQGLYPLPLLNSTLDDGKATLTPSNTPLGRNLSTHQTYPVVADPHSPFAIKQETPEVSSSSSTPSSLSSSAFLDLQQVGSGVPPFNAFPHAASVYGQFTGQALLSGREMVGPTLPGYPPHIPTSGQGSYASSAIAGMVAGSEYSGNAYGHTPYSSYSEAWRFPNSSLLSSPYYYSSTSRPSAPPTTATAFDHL

Compound: COCCNC(=O)c1c(N)n(/N=C/c2cccs2)c2nc3ccccc3nc12
- IC50 [1]: 11.2 µM (active)

Compound: C#C[C@]1(OC(C)=O)CCC2C3CCC4=CC(=O)CCC4C3CC[C@]21C (some centres undefined)
- AC50 [2]: 39.8 µM (inconclusive)

Compound: CN1CCC(=O)N([C@H](CSc2ccc(Br)cc2)Cc2ccccc2)CC1
- EC50 [3]: 4.73 µM (active)

Compound: CCOc1cc(/C=N\NC(=O)Cn2nnc3ccccc32)ccc1O
- IC50 [4]: 13.1 µM (active)

Compound: COc1cc(Cl)ccc1NC(=O)COc1ccccc1C(=O)N1CCN(c2ccc(O)cc2)CC1
- IC50 [4]: 13.4 µM (active)

Compound: N#Cc1cccc(-c2ccc([C@@H]3[C@@H]4CN(C(=O)Nc5ccc(C(F)(F)F)cc5)C[C@H]3N4)cc2)c1
- AC50 [5]: 10.5 µM (active)
- AC50 [6]: 4.72 µM (active)

Compound: CC(Nc1ccc(N2CCOCC2)cc1)C(=O)N1c2ccccc2CC1C (centres undefined)
- IC50 [4]: 21.1 µM (active)

Compound: CCOC(=O)c1c(NC(=O)C(C)Sc2nnc(C)c(O)n2)sc2c1CCCC2 (centres undefined)
- EC50 [7]: 0.237 µM (active)

Compound: C=C(C)Cc1c(C)c(C#N)c2nc3ccccc3n2c1O
- IC50 [8]: 38.6 µM (active)

Compound: CN(C)C(CN=C(S)Nc1ccc(Cl)cc1)c1cccnc1 (centres undefined)
- EC50 [3]: 0.0147 µM (active)

Compound: O=C(COC(=O)c1ccccc1Oc1ccccc1)NCc1ccco1
- IC50 [1]: 17.9 µM (active)

Compound: C[C@@H]1CN([C@@H](C)CO)C(=O)c2ccccc2-c2ccccc2CO[C@H]1CN(C)Cc1ccccc1C(F)(F)F
- AC50 [9]: 12.3 µM (active)
- AC50 [5]: 7.72 µM (active)
- AC50 [6]: 2.97 µM (active)

Compound: COc1cc(OC)c(C(C)=O)c(O)c1C
- AC50 [2]: 0.316 µM (inconclusive)

Compound: Cc1ccc(S(=O)(=O)N(C)C[C@H]2Oc3cc(C4=CCCC4)ccc3S(=O)(=O)N([C@H](C)CO)C[C@H]2C)cc1
- AC50 [10]: 10.1 µM (active)

Compound: Cc1cccc(-c2ccc([C@H]3[C@@H](CO)N4CCCCN(S(=O)(=O)c5cccc(C)c5)C[C@H]34)cc2)c1
- AC50 [5]: 11.6 µM (active)
- AC50 [6]: 1.87 µM (active)

Compound: CN1CCCC(OC(=O)c2cc(Cl)cc(Cl)c2)C1 (centres undefined)
- EC50 [3]: 0.188 µM (active)

Compound: Cc1ccccc1-c1ccc([C@H]2[C@@H]3CN(Cc4cccnc4)C[C@H]2N3)cc1
- AC50 [5]: 24.4 µM (active)
- AC50 [6]: 4.95 µM (active)

Compound: COc1ccc(C2COc3c(ccc(O)c3OC)C2)c(OC)c1O (centres undefined)
- AC50 [2]: 25.1 µM (inconclusive)

Compound: Cc1cccc(N(C(=O)c2snc(C(N)=O)c2N)C(C(=O)NCC2CCCO2)c2ccc3ncccc3c2)c1 (centres undefined)
- EC50 [7]: 7.5 µM (active)

Compound: N#Cc1c(N)sc2c1CCCCCC2
- EC50 [7]: 3.76 µM (active)

Compound: COC(=O)[C@]1(C)C[C@H]1[C@H](NP(=O)(c1ccccc1)c1ccccc1)c1ccccc1
- AC50 [2]: 12.6 µM (inconclusive)

Compound: CC1(C)CC(NC(=O)c2cc(COc3cccc(C(F)(F)F)c3)on2)CCO1 (centres undefined)
- EC50 [7]: 1.88 µM (active)

Compound: Cc1ccccc1-c1ccc([C@@H]2[C@@H]3CN(Cc4cccnc4)C[C@H]2N3)cc1
- AC50 [5]: 9.78 µM (active)
- AC50 [6]: 1.19 µM (active)

Compound: Cc1ccc(-c2nn(-c3cccc(F)c3)cc2CNCc2cccnc2)o1
- EC50 [3]: 2.66 µM (active)

Compound: COc1ccc(OC)c(N2Cc3ccccc3C2=N)c1
- EC50 [7]: 3.35 µM (active)

Compound: N#Cc1ccc(C23CC4(C2)[C@H](CN(P(=O)(c2ccccc2)c2ccccc2)[C@@H]4c2ccccc2)C3c2ccc(Cl)nc2)cc1 (some centres undefined)
- AC50 [2]: 2 µM (inconclusive)

Compound: O=C(/C=C/c1ccc(O)c(O)c1)O[C@@H]1C[C@](O)(C(=O)O)C[C@@H](O)[C@H]1O [CHLOROGENIC ACID]
- IC50 [4]: 14.7 µM (active)

Compound: C[C@H]1CN([C@@H](C)CO)C(=O)Cc2cc(NS(=O)(=O)c3ccccc3)ccc2O[C@@H]1CN(C)Cc1ccc(Cl)c(Cl)c1
- AC50 [10]: 37.1 µM (active)

Compound: COc1ccc(-c2nnc(-c3cc4c(ccc5ccccc54)oc3=O)o2)cc1
- EC50 [11]: > 300 µM (not active)
- IC50 [1]: 20 µM (active)
- EC50 [12]: > 350 µM (not active)
- EC50 [13]: > 300 µM (inconclusive)
- EC50 [14]: > 350 µM (not active)
